Test results as given in the NIST ThermoML archive (doi:10.1021/je3011979).

Assays:
[1] = xn = mol fraction of the nth substance listed; conditions: 101 kPa, Liquid, Vibrating tube method
[2] = excess molar enthalpy (molar enthalpy of mixing); xn = mol fraction of the nth substance listed; conditions: 291.15 K, 101 kPa, Liquid, Calvet calorimetry

CCCOC(C)=O [propyl ethanoate] + CCCCCCC
[1]
Conditions	mass density [kg/m3]
291.15 K, x1 = 0.0086	686.6
291.15 K, x1 = 0.032	690.1
291.15 K, x1 = 0.0864	698.2
291.15 K, x1 = 0.1706	711.3
291.15 K, x1 = 0.2573	725.7
291.15 K, x1 = 0.3308	738.6
291.15 K, x1 = 0.3974	750.9
291.15 K, x1 = 0.4644	763.7
291.15 K, x1 = 0.5398	778.9
291.15 K, x1 = 0.6055	792.8
291.15 K, x1 = 0.6723	807.4
291.15 K, x1 = 0.7257	819.6
291.15 K, x1 = 0.8	837.2
291.15 K, x1 = 0.8457	848.5
291.15 K, x1 = 0.9057	864
291.15 K, x1 = 0.9708	881.6
291.15 K, x1 = 1	889.6
298.15 K, x1 = 0.0149	681.8
298.15 K, x1 = 0.0308	684
298.15 K, x1 = 0.0953	693.5
298.15 K, x1 = 0.168	704.8
298.15 K, x1 = 0.2358	715.8
298.15 K, x1 = 0.3084	728.2
298.15 K, x1 = 0.375	740.2
298.15 K, x1 = 0.4386	752.1
298.15 K, x1 = 0.5062	765.3
298.15 K, x1 = 0.5643	777.2
298.15 K, x1 = 0.6488	795.2
298.15 K, x1 = 0.6684	799.5
298.15 K, x1 = 0.7446	816.9
298.15 K, x1 = 0.793	828.4
298.15 K, x1 = 0.8688	847.3
298.15 K, x1 = 0.91	858
298.15 K, x1 = 0.9508	868.8
298.15 K, x1 = 1	882.5
318.15 K, x1 = 0.0291	666.1
318.15 K, x1 = 0.0843	673.9
318.15 K, x1 = 0.1595	685.1
318.15 K, x1 = 0.23	696.3
318.15 K, x1 = 0.2972	707.3
318.15 K, x1 = 0.3638	718.8
318.15 K, x1 = 0.4295	730.8
318.15 K, x1 = 0.4902	742.3
318.15 K, x1 = 0.553	754.6
318.15 K, x1 = 0.6057	765.4
318.15 K, x1 = 0.6734	779.8
318.15 K, x1 = 0.726	791.4
318.15 K, x1 = 0.7727	802.1
318.15 K, x1 = 0.7949	807.7
318.15 K, x1 = 0.8645	824.4
318.15 K, x1 = 0.9242	839.3
318.15 K, x1 = 1	859.8
328.15 K, x1 = 0.0373	658.5
328.15 K, x1 = 0.0866	665.4
328.15 K, x1 = 0.1645	676.8
328.15 K, x1 = 0.2401	688.6
328.15 K, x1 = 0.3096	700
328.15 K, x1 = 0.3783	711.8
328.15 K, x1 = 0.4478	724.3
328.15 K, x1 = 0.5142	736.8
328.15 K, x1 = 0.5756	748.9
328.15 K, x1 = 0.6377	761.7
328.15 K, x1 = 0.6884	772.5
328.15 K, x1 = 0.756	787.5
328.15 K, x1 = 0.8074	799.5
328.15 K, x1 = 0.856	811.2
328.15 K, x1 = 0.9097	824.7
328.15 K, x1 = 0.9638	838.7
328.15 K, x1 = 1	848.3

[2]
Conditions	excess molar enthalpy [kJ/mol]
x1 = 0.0996	0.436
x1 = 0.2001	0.756
x1 = 0.2956	1.001
x1 = 0.3852	1.14
x1 = 0.4642	1.192
x1 = 0.5309	1.195
x1 = 0.588	1.149
x1 = 0.638	1.073
x1 = 0.656	1.046
x1 = 0.7113	0.948
x1 = 0.7717	0.81
x1 = 0.8326	0.639
x1 = 0.8942	0.437
x1 = 0.9501	0.226
